Patent US4175125A, “Method for treating methicillin resistant staphylococcus aureus” (Eli Lilly and Company, priority 1978, dated 1979)
Read-outs that look alike come from different tables or passages of the source.

Columns and labels:
[1] = system: Staphylococcus aureus cultures; assay: Agar dilution MIC, Example 13 compound vs methicillin resistant Staphylococcus aureus; type: cell-based
Text: The table which follows gives the minimum inhibitory concentration (MIC) in micrograms of compound per milliliter of culture (μg/ml), in comparison with similar MIC values for the known antibiotics methicillin, cephalothin and cephaloridine against the same strains of bacteria.

[2] = system: methicillin-resistant Staphylococcus aureus; assay: Gradient plate test (MIC) against methicillin-resistant Staphylococcus aureus; type: cell-based; settings: Staphylococcus aureus, read-out: minimum inhibitory concentration (MIC)
Method: The method used is essentially that described by Bryson and Szybalski in 1952 (Science 116:45-46). The inoculum treatment method used for penicillin resistant Staphylococci was reported by Godzeski et al in Antimicrobial Agents and Chemotherapy, May, 1969, pp. 547-554.
A standard Falcon square plastic petri dish is used. A layer of agar (10 ml.) is poured into one of the square dishes, the dish tipped 5 mm. off the horizontal, and the agar layer allowed to harden in this position. This bottom layer of agar contains the antibiotic, the serum, and/or other material to be tested. The medium is Difco Penassay Agar containing 2 percent agar. We routinely used 4 ml. of human or horse serum for "serum-inactivation" testing. […] Therefore, serum is routinely added only to the bottom layer.
After the bottom, slanted layer of agar medium has hardened, the plate is placed flat and another 10 ml. of medium added and allowed to harden.
The inoculum of resistant Staphylococci, as described, is prepared by diluting the water suspension 1/50 in 0.25 percent agar in sterile water or saline. For Gram negative organisms, an overnight broth culture is diluted 1/50 in the 0.25 percent agar-water. This dilution is thoroughly shaken to evenly suspend the bacteria. To streak the plate, we use a 1 ml. pipet containing an aliquot of the final […] agar dilution. After a little practice, a smooth even stroke of inoculum can be laid down very rapidly. The trick is in the smoothness of the streak--it must be accomplished uniformly and quickly.
After 24 hours incubation at 35°-37° C. the plates are read by simply measuring the length of bacterial growth as a percentage of the entire streak distance which is then converted to the percent of antibiotic concentration in the plate.
Average values of duplicate measurements are calculated and the M.I.C.'s reported are average of 2 streaks on the plate and from 2 to 3 duplicate plates. Eight streaks can be easily placed on each plate. If sharp end points are not obtained, the middle concentration between the beginning of inhibition of the streak to the end of growth is measured. The concentration of the antibiotic under examination is varied from plate to plate in a series as follows: […]
This method of screening penicillins and cephalosporins is quite satisfactory. Control plates containing penicillin and staphcillin or prostaphlin, or other control antibiotic, are used daily for the resistant staphylococcal activity screen. The gradient plate method has shown differences between antibiotics that were not apparent by any other methods of screening. […] We believe that the gradient plate screen is more sensitive to small differences between related antibiotics than other methods and pictures of the plates can provide a permanent record. The method also lends itself readily to modification of specific purposes--e.g., cross gradients.
The compounds listed below are examples of compounds useful in the method of this invention. After the compound name there is given in parentheses, where tested, the minimum inhibitory concentrations (MIC) in micrograms per milliliter (μg/ml) for the compound in the above described gradient plate procedure test against methicillin-resistant Staphylococcus aureus, (in the absence of blood serum/in the presence of 20 percent blood serum).
and pharmaceutically acceptable salts thereof. The abbreviation "s.z." means skip zones.

Measured: MIC

COc1cccc(OC)c1C(=O)N[C@@H]1C(=O)N2[C@@H]1SC(C)(C)[C@@H]2C(=O)O [Methicillin, methicillin]
16 µg/mL: [1]; culture 3130, Trypticase Soy Agar with 4.5% NaCl added (5% NaCl), read-out: MIC | [1]; culture Seattle 966, Trypticase Soy Agar with 4.5% NaCl added (5% NaCl), read-out: MIC
32 µg/mL: [1]; culture 3131, Trypticase Soy Agar with 4.5% NaCl added (5% NaCl), read-out: MIC | [1]; culture 3134, Trypticase Soy Agar with 4.5% NaCl added (5% NaCl), read-out: MIC | [1]; culture 3135, Trypticase Soy Agar with 4.5% NaCl added (5% NaCl), read-out: MIC | [1]; culture 3138, Trypticase Soy Agar with 4.5% NaCl added (5% NaCl), read-out: MIC | [1]; culture S 61, Trypticase Soy Agar with 4.5% NaCl added (5% NaCl), read-out: MIC
2 µg/mL: [1]; culture 3133, Trypticase Soy Agar with 4.5% NaCl added (5% NaCl), read-out: MIC | [1]; culture 3133, Trypticase Soy Agar, 0.5% NaCl, read-out: MIC | [1]; culture 3139, Trypticase Soy Agar, 0.5% NaCl, read-out: MIC | [1]; culture H232 (control), Trypticase Soy Agar, 0.5% NaCl, read-out: MIC
1 µg/mL: [1]; culture 3055 (control), Trypticase Soy Agar with 4.5% NaCl added (5% NaCl), read-out: MIC | [1]; culture 3055 (control), Trypticase Soy Agar, 0.5% NaCl, read-out: MIC | [1]; culture 3139, Trypticase Soy Agar with 4.5% NaCl added (5% NaCl), read-out: MIC | [1]; culture H232 (control), Trypticase Soy Agar with 4.5% NaCl added (5% NaCl), read-out: MIC
8 µg/mL: [1]; culture 3132, Trypticase Soy Agar with 4.5% NaCl added (5% NaCl), read-out: MIC | [1]; culture 3134, Trypticase Soy Agar, 0.5% NaCl, read-out: MIC | [1]; culture 3137, Trypticase Soy Agar, 0.5% NaCl, read-out: MIC | [1]; culture 3138, Trypticase Soy Agar, 0.5% NaCl, read-out: MIC | [1]; culture Havarmak 1136501, Trypticase Soy Agar, 0.5% NaCl, read-out: MIC
4 µg/mL: [1]; culture 3130, Trypticase Soy Agar, 0.5% NaCl, read-out: MIC | [1]; culture 3131, Trypticase Soy Agar, 0.5% NaCl, read-out: MIC | [1]; culture 3132, Trypticase Soy Agar, 0.5% NaCl, read-out: MIC | [1]; culture 3135, Trypticase Soy Agar, 0.5% NaCl, read-out: MIC | [1]; culture 3136, Trypticase Soy Agar, 0.5% NaCl, read-out: MIC | [1]; culture S 61, Trypticase Soy Agar, 0.5% NaCl, read-out: MIC | [1]; culture Seattle 966, Trypticase Soy Agar, 0.5% NaCl, read-out: MIC
64 µg/mL: [1]; culture 3136, Trypticase Soy Agar with 4.5% NaCl added (5% NaCl), read-out: MIC | [1]; culture 3137, Trypticase Soy Agar with 4.5% NaCl added (5% NaCl), read-out: MIC | [1]; culture Havarmak 1136501, Trypticase Soy Agar with 4.5% NaCl added (5% NaCl), read-out: MIC

CC(=O)OCC1=C(C(=O)O)N2C(=O)[C@@H](NC(=O)Cc3cccs3)[C@H]2SC1 [Cephalothin, cephalothin, reference compound]
0.13 µg/mL: [1]; culture 3055 (control), Trypticase Soy Agar, 0.5% NaCl
0.5 µg/mL: [1]; culture 3130, Trypticase Soy Agar, 0.5% NaCl | [1]; culture 3131, Trypticase Soy Agar, 0.5% NaCl | [1]; culture 3132, Trypticase Soy Agar with 4.5% NaCl added (5% NaCl) | [1]; culture 3132, Trypticase Soy Agar, 0.5% NaCl | [1]; culture 3133, Trypticase Soy Agar with 4.5% NaCl added (5% NaCl) | [1]; culture 3133, Trypticase Soy Agar, 0.5% NaCl | [1]; culture 3136, Trypticase Soy Agar, 0.5% NaCl | [1]; culture 3139, Trypticase Soy Agar, 0.5% NaCl | [1]; culture Seattle 966, Trypticase Soy Agar, 0.5% NaCl
1 µg/mL: [1]; culture 3130, Trypticase Soy Agar with 4.5% NaCl added (5% NaCl) | [1]; culture 3131, Trypticase Soy Agar with 4.5% NaCl added (5% NaCl) | [1]; culture 3134, Trypticase Soy Agar with 4.5% NaCl added (5% NaCl) | [1]; culture 3135, Trypticase Soy Agar with 4.5% NaCl added (5% NaCl) | [1]; culture 3135, Trypticase Soy Agar, 0.5% NaCl | [1]; culture 3136, Trypticase Soy Agar with 4.5% NaCl added (5% NaCl) | [1]; culture 3137, Trypticase Soy Agar with 4.5% NaCl added (5% NaCl) | [1]; culture 3138, Trypticase Soy Agar, 0.5% NaCl | [1]; culture Havarmak 1136501, Trypticase Soy Agar with 4.5% NaCl added (5% NaCl) | [1]; culture Havarmak 1136501, Trypticase Soy Agar, 0.5% NaCl | [1]; culture S 61, Trypticase Soy Agar with 4.5% NaCl added (5% NaCl) | [1]; culture S 61, Trypticase Soy Agar, 0.5% NaCl
2 µg/mL: [1]; culture 3134, Trypticase Soy Agar, 0.5% NaCl | [1]; culture 3137, Trypticase Soy Agar, 0.5% NaCl | [1]; culture 3138, Trypticase Soy Agar with 4.5% NaCl added (5% NaCl)
0.25 µg/mL: [1]; culture 3055 (control), Trypticase Soy Agar with 4.5% NaCl added (5% NaCl) | [1]; culture 3139, Trypticase Soy Agar with 4.5% NaCl added (5% NaCl) | [1]; culture H232 (control), Trypticase Soy Agar with 4.5% NaCl added (5% NaCl) | [1]; culture Seattle 966, Trypticase Soy Agar with 4.5% NaCl added (5% NaCl)
2.5 µg/mL: [1]; culture H232 (control), Trypticase Soy Agar, 0.5% NaCl

CC(=O)OCC1=C(C(=O)O)N2C(=O)C(NC(=O)CSc3ccc(Cl)c(Cl)c3)C2SC1 (centres unmarked) [Example 1, 7-(3,4-dichlorophenylthioacetamido)cephalosporanic acid]
1 µg/mL: [2]; in the absence of blood serum
1.7 µg/mL: [2]; in the presence of 20 percent blood serum
